The values below come from PMC4166403 (Cell, 2014).

Data set [1] addresses T1, pyruvate carboxylase (LmPC) (Listeria monocytogenes, UniProt Q8Y846).
T1 sequence (Q8Y846 1-1146): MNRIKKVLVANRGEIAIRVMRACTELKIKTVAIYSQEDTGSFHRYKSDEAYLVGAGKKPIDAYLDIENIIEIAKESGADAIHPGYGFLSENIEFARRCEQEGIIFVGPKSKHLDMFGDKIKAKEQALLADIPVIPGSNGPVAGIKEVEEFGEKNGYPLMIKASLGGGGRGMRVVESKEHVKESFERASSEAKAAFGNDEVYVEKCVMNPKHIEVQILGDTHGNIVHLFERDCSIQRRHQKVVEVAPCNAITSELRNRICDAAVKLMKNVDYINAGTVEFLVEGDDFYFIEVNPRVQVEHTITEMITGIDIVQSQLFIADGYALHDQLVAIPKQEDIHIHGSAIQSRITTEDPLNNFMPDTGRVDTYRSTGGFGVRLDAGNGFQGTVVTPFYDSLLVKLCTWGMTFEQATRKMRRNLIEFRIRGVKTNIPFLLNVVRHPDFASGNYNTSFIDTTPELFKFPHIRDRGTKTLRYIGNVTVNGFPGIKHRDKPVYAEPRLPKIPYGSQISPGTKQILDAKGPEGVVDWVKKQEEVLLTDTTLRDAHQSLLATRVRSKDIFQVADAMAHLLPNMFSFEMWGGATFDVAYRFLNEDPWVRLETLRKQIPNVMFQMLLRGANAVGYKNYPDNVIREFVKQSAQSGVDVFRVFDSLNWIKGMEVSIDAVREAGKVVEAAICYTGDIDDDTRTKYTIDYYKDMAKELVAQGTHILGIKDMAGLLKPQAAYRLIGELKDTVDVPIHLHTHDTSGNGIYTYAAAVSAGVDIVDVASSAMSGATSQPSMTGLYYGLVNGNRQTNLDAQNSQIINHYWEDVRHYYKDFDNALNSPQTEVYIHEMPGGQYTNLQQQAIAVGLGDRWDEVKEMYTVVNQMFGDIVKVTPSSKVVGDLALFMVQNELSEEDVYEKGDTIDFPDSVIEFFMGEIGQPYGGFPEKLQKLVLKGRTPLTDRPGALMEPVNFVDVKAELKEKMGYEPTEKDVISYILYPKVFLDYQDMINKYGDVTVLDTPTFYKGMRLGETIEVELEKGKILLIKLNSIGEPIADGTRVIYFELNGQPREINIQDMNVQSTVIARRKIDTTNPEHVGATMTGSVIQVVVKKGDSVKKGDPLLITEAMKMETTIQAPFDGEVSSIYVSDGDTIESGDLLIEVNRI
The experiment in a line: PC activity assay with nucleotide analogues. The class given is biochemical.

In data set [2] the target is T2, PdeA (Lmo0052) (Listeria monocytogenes, UniProt A0A0H3GCG4).
T2 sequence (A0A0H3GCG4 1-657): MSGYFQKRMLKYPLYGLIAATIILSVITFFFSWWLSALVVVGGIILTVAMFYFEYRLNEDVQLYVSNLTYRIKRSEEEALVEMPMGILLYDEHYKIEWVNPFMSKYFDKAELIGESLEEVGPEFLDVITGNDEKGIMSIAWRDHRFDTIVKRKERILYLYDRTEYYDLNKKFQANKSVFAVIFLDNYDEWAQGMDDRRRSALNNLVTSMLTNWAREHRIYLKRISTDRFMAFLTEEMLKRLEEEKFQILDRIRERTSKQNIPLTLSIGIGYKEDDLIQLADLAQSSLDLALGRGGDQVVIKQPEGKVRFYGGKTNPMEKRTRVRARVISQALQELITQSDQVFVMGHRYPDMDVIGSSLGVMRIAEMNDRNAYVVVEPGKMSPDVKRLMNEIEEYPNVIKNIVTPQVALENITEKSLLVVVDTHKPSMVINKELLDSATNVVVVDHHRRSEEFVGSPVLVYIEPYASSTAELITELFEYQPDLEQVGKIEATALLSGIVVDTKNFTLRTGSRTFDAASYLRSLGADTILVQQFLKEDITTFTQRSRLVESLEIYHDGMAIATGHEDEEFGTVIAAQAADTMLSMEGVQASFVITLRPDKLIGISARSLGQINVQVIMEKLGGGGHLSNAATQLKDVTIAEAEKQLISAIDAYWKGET
The experiment in a line: DRaCALA with […]-c-di-AMP, purified recombinant protein. Type of data set: binding.

The target in data set [3] is T1, pyruvate carboxylase (LmPC). The experiment in a line: crystal structure. The class given is binding.
The target of data set [4] is pyruvate carboxylase (LmPC) (Listeria monocytogenes, UniProt Q8Y846, Y722F). In words: binding titration and enzyme inhibition of purified mutant.
Data set [5] addresses T3, Lmo1466 (Listeria monocytogenes, UniProt Q8Y746).
T3 sequence (Q8Y746 1-718): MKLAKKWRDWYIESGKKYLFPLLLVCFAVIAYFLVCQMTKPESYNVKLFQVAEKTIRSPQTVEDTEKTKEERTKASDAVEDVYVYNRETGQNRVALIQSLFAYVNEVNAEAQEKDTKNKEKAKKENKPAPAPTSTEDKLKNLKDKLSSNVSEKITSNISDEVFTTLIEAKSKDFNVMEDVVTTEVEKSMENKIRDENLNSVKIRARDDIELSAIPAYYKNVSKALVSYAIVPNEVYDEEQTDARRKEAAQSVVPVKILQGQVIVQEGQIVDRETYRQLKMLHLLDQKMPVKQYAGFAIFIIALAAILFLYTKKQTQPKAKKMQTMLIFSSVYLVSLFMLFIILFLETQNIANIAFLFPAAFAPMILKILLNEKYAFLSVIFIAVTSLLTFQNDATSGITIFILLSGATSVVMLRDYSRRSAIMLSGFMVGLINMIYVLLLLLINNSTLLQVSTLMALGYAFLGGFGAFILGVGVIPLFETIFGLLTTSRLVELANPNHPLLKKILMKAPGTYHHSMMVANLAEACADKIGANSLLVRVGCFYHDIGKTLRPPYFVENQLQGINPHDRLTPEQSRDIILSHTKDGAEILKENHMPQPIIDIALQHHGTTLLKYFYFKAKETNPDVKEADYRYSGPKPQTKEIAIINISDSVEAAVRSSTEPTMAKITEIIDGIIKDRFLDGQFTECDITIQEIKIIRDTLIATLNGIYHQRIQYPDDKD
The experiment in a line: DRaCALA with […]-c-di-AMP in E. coli lysate expressing the protein. The class given is cell-based.

Data set [6] deals with the molecule itself. In words: crystal structure.

For `O=c1[nH]cnc2c1ncn2[C@@H]1O[C@@H]2COP(=O)(O)O[C@H]3[C@@H](O)[C@H](n4cnc5c(=O)[nH]cnc54)O[C@@H]3COP(=O)(O)O[C@H]2[C@H]1O` [c-di-IMP], in data set [1], the “PC activity assay with nucleotide analogues” value was “while c-di-IMP did show weak inhibitory activity”.

In general, Kd refers to the constant that tells how readily two partners part at equilibrium. Higher therefore signals a looser complex. Regarding `Nc1ncnc2c1ncn2[C@@H]1O[C@@H]2CO[P@@](=O)(O)O[C@H]3[C@@H](O)[C@H](n4cnc5c(N)ncnc54)O[C@@H]3CO[P@@](=O)(O)O[C@H]2[C@H]1O` [cdA, c-di-AMP], the “DRaCALA with 32P-c-di-AMP, purified recombinant protein” value in data set [2] is “as well as PdeA and LmPC exhibited binding in purified form”. Besides, in data set [3], the dissociation constant Kd was 8 ± 0.2 µM. Besides, the “binding titration and enzyme inhibition of purified mutant” value in data set [4] was “binding to c-di-AMP was only observed for Y722F and none of the other amino acid variants”. In data set [5], the “DRaCALA with 32P-c-di-AMP in E. coli lysate expressing the protein” value was “A significant level of binding was observed for Lmo1466 and NrdR-expressing lysates, consistent with a direct interaction with c-di-AMP”.

B1: Listeria monocytogenes pyruvate carboxylase (LmPC) (enzyme)
chain: T1 sequence (Q8Y846 1-1146)
modifications: biotin group on the BCCP domain (position not given)
The stoichiometry N is the number of molecules, sites or subunits per partner or assembly. Turning to B1, the “stoichiometry N” value in data set [6] turned out to be 4.
